Data from ChEMBL document CHEMBL5370648, “Rational Design of Bioorthogonally Activatable PROTAC for Tumor-Targeted Protein Degradation” (J Med Chem, 2023).
pIC50: −log10 of the molar value. Active and inactive are the calls of the source. The calls are words filed in the database; no cut-off is given here.

Assays:
[1] = Retention time of the compound by HPLC method; type: physicochemical
MCF7 [2] = test: Cytotoxicity against human MCF7 cells assessed as inhbition of cell growth measured after 48 hrs by CCK-8 method; type: functional, cell-based; details: MCF7, 48 h
[3] = target: T1, von Hippel-Lindau disease tumor suppressor/Bromodomain-containing protein 4 (Homo sapiens, UniProt O60885+P40337); test: PROTAC activity at BRD4/VHL E3 ligase in 12 hrs BODIPY-TZ treated human MCF7 cells assessed as activation of caspase-3 expression incubated for 48 hrs by Western blot analysis; type: cell-based
T1 sequence (P40337 whole entry, looked up, other chains not shown): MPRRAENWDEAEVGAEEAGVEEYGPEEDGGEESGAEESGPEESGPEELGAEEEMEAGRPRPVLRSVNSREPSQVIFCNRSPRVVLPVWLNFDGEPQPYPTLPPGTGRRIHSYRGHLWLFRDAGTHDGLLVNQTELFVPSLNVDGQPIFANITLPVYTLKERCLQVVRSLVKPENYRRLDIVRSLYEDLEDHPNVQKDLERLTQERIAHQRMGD

[4] = target: T1, von Hippel-Lindau disease tumor suppressor/Bromodomain-containing protein 4; test: PROTAC activity at BRD4/VHL E3 ligase in 12 hrs BODIPY-TZ treated human MDA-MB-231 cells assessed as degradation of BRD4 expression incubated for 48 hrs by Western blot analysis; type: cell-based
MCF7 [5] = test: Antitumor activity against IR808-TZ treated human MCF7 cells xenografted in BALB/c nude mouse assessed as fold increase in tumor volume at 20 mg/kg measured at day 23 post injection; type: functional; details: time 23 day
[6] = target: T1, von Hippel-Lindau disease tumor suppressor/Bromodomain-containing protein 4; test: PROTAC activity at BRD4/VHL E3 ligase in 12 hrs BODIPY-TZ treated human MDA-MB-231 cells assessed as activation of caspase-3 expression incubated for 48 hrs by Western blot analysis; type: cell-based
[7] = target: T1, von Hippel-Lindau disease tumor suppressor/Bromodomain-containing protein 4; test: PROTAC activity at BRD4/VHL E3 ligase in 12 hrs BODIPY-TZ treated human MCF7 cells assessed as suppression of c-Myc expression incubated for 48 hrs by Western blot analysis; type: cell-based
MCF7 [8] = test: Antitumor activity against IR808-TZ treated human MCF7 cells xenografted in BALB/c nude mouse model assessed as inhibition of tumor cell proliferation by measuring reduction in Ki67 staining at 20 mg/kg administered for 16 days by immunohistochemical analysis; type: functional, organism-based; details: time 16.0 day
[9] = target: T1, von Hippel-Lindau disease tumor suppressor/Bromodomain-containing protein 4; test: PROTAC activity at BRD4/VHL E3 ligase in human MCF7 cells assessed as induction of degradation of intracellular BRD4 at 200 nM incubated for 48 hrs by immunofluorescence staining assay; type: cell-based
T47D = test: Cytotoxicity against 12 hrs BODIPY-TZ treated human T47D cells assessed as inhbition of cell growth measured after 48 hrs by CCK-8 method; type: functional, cell-based

## CC1=CC(C)=[N+]2C1=C(c1cccc(-c3nnc(C)nn3)c1)c1c(C)cc(C)n1[B-]2(F)F
[1]
  Retention_time: 19.92 min
MCF7 [2]
  pIC50: 5.88
[3]
  Activity: Active
[4]
  Activity: Active
MCF7 [5]
  fold change (FC): 1.74
[6]
  Activity: Active
[7]
  Activity: Active
MCF7 [8]
  Activity: Active
[9]
  Activity: inactive
T47D
  pIC50: 6.39
